Values of other authors in US20070042008A1, “Compositions containing phosphatidylcholine and essential fatty acids” (BodyBio, Inc., priority 2005, published 2007).

Details: oral

Phosphatidylcholine [PC]
blood levels peak (time to peak): 8 to 12 h
absorbed, taken orally (per 24 hrs, taken with meals): up to 90%
